# Tests used:
# [1] = tested on: export of VSV-G protein from the ER; conditions: cited from earlier work
# [2] = tested on: export of VSV-G protein from the ER; format: cell-based; conditions: for morphological effect on VSV-G export/transport: 45 min at 32°C
# [3] = tested on: ER to Golgi transport of VSV-G protein; format: cell-based
molecule,measurement,setting,value
"C=C1[C@@H](O)[C@@H]2O[C@]3(CC[C@H](/C=C/[C@@H](C)[C@@H]4CC(C)=C[C@@]5(O[C@H](C[C@@](C)(O)C(=O)O)CC[C@H]5O)O4)O3)CC[C@H]2O[C@@H]1[C@@H](O)C[C@H](C)[C@H]1O[C@@]2(CCCCO2)CC[C@H]1C [OKA, okadaic acid]",effect on VSV-G protein exit from the ER,[1],potently inhibit VSV-G protein exit from the ER
C/C=C(/C)C(=O)O[C@H]1C(C)=C2[C@H]([C@@H]1OC(=O)CCCCCCC)[C@@](C)(OC(C)=O)C[C@H](OC(=O)CCC)[C@@]1(O)[C@H]2OC(=O)[C@@]1(C)O [thapsigargan],effect on VSV-G export in vitro,[2],no effectof the drug
AlCl3,morphological effect on VSV-G export/transport,[2],did not inhibit
same,effect on processing of VSV-G to the endo HR form,[3],no effect
guanosine-5'-O-(3-thiophospbate) [GTPTS],VSV-G containing punctate intermediates that contain rab1B,[2],< 10%
same,morphological effect on VSV-G export/transport,[2],"concentrated in numerous small, punctate structures"

# — paper PMC2289734 (The Journal of Cell Biology, 1992)
